Measured values taken from the supplement of paper PMC13380429.

Columns and labels:
Settings in all cases: 72 h
Calu-3 [1] = test: cell viability relative to DMSO; higher = less toxic
HepG2 [2] = test: as above
U2OS [3] = test: as above
Caco-2 [4] = test: as above
Vero E6 [5] = test: as above
Calu-3 [6] = test: drug sensitivity score (DSS) for viability; higher = more toxic; extreme values may be limits of the assay
HepG2 [7] = test: as above
U2OS [8] = test: as above
Caco-2 [9] = test: as above
Vero E6 [10] = test: as above
HepG2 [11] = test: relative viability EC50 (midpoint between 100% and the lowest measured viability); higher = less toxic
U2OS [12] = test: as above
Caco-2 [13] = test: as above
Vero E6 [14] = test: as above

| SMILES | cell viability (Calu-3 [1]; 1 nM) | cell viability (Calu-3 [1]; 10 nM) | cell viability (Calu-3 [1]; 100 nM) | cell viability (Calu-3 [1]; 1000 nM) | cell viability (Calu-3 [1]; 10000 nM) | cell viability (HepG2 [2]; 1 nM) | cell viability (HepG2 [2]; 10 nM) | cell viability (HepG2 [2]; 100 nM) | cell viability (HepG2 [2]; 1000 nM) | cell viability (HepG2 [2]; 10000 nM) | cell viability (U2OS [3]; 1 nM) | cell viability (U2OS [3]; 10 nM) | cell viability (U2OS [3]; 100 nM) | cell viability (U2OS [3]; 1000 nM) | cell viability (U2OS [3]; 10000 nM) | cell viability (Caco-2 [4]; 1 nM) | cell viability (Caco-2 [4]; 10 nM) | cell viability (Caco-2 [4]; 100 nM) | cell viability (Caco-2 [4]; 1000 nM) | cell viability (Caco-2 [4]; 10000 nM) | cell viability (Vero E6 [5]; 1 nM) | cell viability (Vero E6 [5]; 10 nM) | cell viability (Vero E6 [5]; 100 nM) | cell viability (Vero E6 [5]; 1000 nM) | cell viability (Vero E6 [5]; 10000 nM) | drug sensitivity score (Calu-3 [6]) | drug sensitivity score (HepG2 [7]) | drug sensitivity score (U2OS [8]) | drug sensitivity score (Caco-2 [9]) | drug sensitivity score (Vero E6 [10]) | relative viability EC50 (HepG2 [11]) | relative viability EC50 (U2OS [12]) | relative viability EC50 (Caco-2 [13]) | relative viability EC50 (Vero E6 [14]) |
| --- | --- | --- | --- | --- | --- | --- | --- | --- | --- | --- | --- | --- | --- | --- | --- | --- | --- | --- | --- | --- | --- | --- | --- | --- | --- | --- | --- | --- | --- | --- | --- | --- | --- | --- |
| CC(=O)O/N=C1\C(=O)N(Cc2cc(Cl)ccc2Cl)c2ccc(Cl)cc21 | 103% | 90.7% | 93.9% | 98.4% | 61.8% | 97.9% | 97.7% | 104% | 108% | 86.9% | 100% | 99% | 97.7% | 96.6% | 97.3% | 97.3% | 92% | 104% | 91% | 83.9% | 98.3% | 105% | 97.3% | 98.7% | 97.9% | 2.1 | 0 | 0 | 1 | 0 | > 10000 nM | > 10000 nM | > 10000 nM | > 10000 nM |
| N[C@@H](CC(=O)Nc1ccc(Oc2cc(F)c(F)cc2Br)cc1)C(=O)O | – | – | – | – | – | 94.2% | 92.6% | 91.7% | 111% | 104% | 99% | 94.4% | 101% | 94.7% | 102% | 94.8% | 88.1% | 98.6% | 87% | 99% | 91% | 98.3% | 95.1% | 101% | 105% | – | 0 | 0 | 0 | 0 | > 10000 nM | > 10000 nM | > 10000 nM | > 10000 nM |
| O=C(Nc1ccc([N+](=O)[O-])cc1O)Nc1ccccc1Br | 102% | 98.2% | 88.4% | 108% | 59.3% | 89.9% | 101% | 89.7% | 92% | 32.5% | 98.3% | 99.6% | 96.9% | 87% | 36.6% | 98.6% | 103% | 102% | 77% | 40.5% | 101% | 98.3% | 94.5% | 85.7% | 34.8% | 1.6 | 5.1 | 5.6 | 6.4 | 5.9 | 2190 nM | 1720 nM | 1200 nM | 1660 nM |
| CCN(CC)CCOC(=O)C(Cc1cccc2ccccc12)CC1CCCO1 (mixture of isomers) [naftidrofuryl] | – | – | – | – | – | – | – | – | – | – | – | – | – | – | – | – | – | – | – | – | – | – | – | – | – | 0 | – | – | – | 0.2 | – | – | – | – |
| c1ccc(CCCCN2CCC(c3ccccc3)CC2)cc1 [4-PPBP] | 93% | 111% | 96.7% | 95.1% | 69.3% | 99.8% | 103% | 101% | 93.8% | 77.9% | 90.7% | 91.2% | 96.1% | 94.7% | 84.6% | 94.7% | 94.9% | 89.8% | 86.1% | 84.4% | 100% | 102% | 102% | 99.7% | 90% | 2.2 | 1.6 | 0 | 1.4 | 0 | > 10000 nM | > 10000 nM | > 10000 nM | > 10000 nM |
| COc1cc(N2CCC(N3CCN(C)CC3)CC2)ccc1Nc1ncnc(Nc2ccccc2S(=O)(=O)C(C)C)n1 [ASP3026] | – | – | – | – | – | 107% | 96.6% | 99.7% | 88.7% | 25.2% | 100% | 94.5% | 99.6% | 98.5% | 70.9% | 102% | 101% | 95.7% | 92.7% | 68.6% | 92.9% | 97.9% | 100% | 90.9% | 51.7% | – | 6 | 1.4 | 2.5 | 4 | 1980 nM | – | – | – |
| COc1cccc(-c2cc(NCc3ccc4c(c3)OCO4)nc(N)n2)c1 [BML-284] | 104% | 92.9% | 102% | 66.9% | 62.4% | 97.7% | 97.2% | 93.9% | 52.9% | 30.5% | 92.8% | 97% | 95.8% | 49.8% | 27.7% | 104% | 93.4% | 102% | 62.4% | 46.6% | 102% | 99.9% | 101% | 29.8% | 27.6% | 5.8 | 9.8 | 10.3 | 7.3 | 12.8 | 572 nM | 590 nM | 707 nM | 349 nM |
